Measurements reported in patent US7531195B2, “Schisandrin B preparation” (priority 2005, dated 2009).

Key:
Format in all cases: in vivo, rat
[1] = test system: Hsp70; experiment: Tissue Hsp70 level in young female rats (Western blot); conditions: 10 mg/kg daily, 15 days
Description: Female Sprague-Dawley rats (8 weeks old) were maintained under a 12-h dark/light cycle at about 22° C. and allowed food and water ad libitum. Drug treated animals received a daily bolus dose of (−) Schisandrin B, α-lipoic acid (α-LA) or α-tocopherol (α-Toc) at 10, 5 and 70 mg/kg, respectively, for 15 days. The dosages were determined with reference to the equivalent amount of crude herb prescribed for human or the daily recommended intake in health supplements. The control animals received olive oil only. Twenty-four hours after the last dose, the pentobarbital-anesthetized animals were sacrificed by cardiac excision, and brain. heart, liver and skeletal muscle tissues were obtained.
Hsp25 and Hsp70 levels was estimated by Western blot analysis using specific antibodies (anti-Hsp25, catalog #SPA-801; anti-Hsp70, catalog #SPA-812) from StressGen (Vancouver, BC, Canada) following SDS-PAGE analysis of the nuclear-free tissue homogenates, using a separating gel of 10% acrylamide as described in Ip et. al. (2001). Hsp25/27 and Hsp70 (human recombinant proteins from StressGen) and actin (bovine muscle from Sigma) were used as markers for reference. […] All immuno-blots were analyzed by densitometry, and the amounts (arbitrary units) of Hsp were normalized with reference to actin levels (arbitrary units) in the sample.

[2] = test system: mitochondria of brain, heart, liver and skeletal muscle; experiment: Ca2+-induced mitochondrial permeability transition (MPT) in tissues of young adult and middle-aged rats
Description: (§1) Young adult (8-10 week-old) and middle-aged (12-14 month-old retired breeder) female Sprague-Dawley rats were maintained under a 12-h dark/light cycle at about 22° C. and allowed food and water ad libitum. Experimental protocols were approved by the Research Practice Committee at the Hong Kong University of Science & Technology, Hong Kong. Animals were randomly divided into groups, with 5 animals in each. In the treatment groups, rats were intragastrically administered with Sch B (dissolved/suspended in olive oil) at a daily dose of 10 mg/kg for 15 days. The daily dose is approximated to 1.14 mg/kg for humans after adjusting the inter-species difference in drug distribution in the body. Untreated control animals received olive oil only. Twenty-four hours after the last dosing, animals were sacrificed by decapitation and the whole brain, heart ventricular, liver and skeletal muscle (hind limb) tissues were excised and subjected to biochemical analysis. […]
Tissue homogenates were prepared as described above. […] An aliquot (1.6 ml) of mitochondrial sample (0.5 mg protein/ml) was prepared by mixing mitochondrial fraction with incubation buffer (125 mM sucrose, 65 mM KCl, 10 mM Hepes, pH 7.2, 5 mM succinate (freshly prepared) and 5 μM rotenone (freshly prepared). Aliquots (200 μl) of mitochondrial sample were mixed with 10 μl of cyclosporin A (5 μM in 0.5% ethanol final concentration) or incubation buffer. The mixtures were incubated at 30° C. for 5 min. An aliquot (10 μl) of calcium chloride solution (1 μM final concentration) was then added, and the mixtures were incubated at 30° C. for 5 min. Aliquots (180 μl) of the mixtures were added into 96-well micro-titer plate, and the initial absorbance of the mixtures at 520 nm was monitored for 5 min at 30° C. The swelling reaction was then started by adding 20 μl of K3PO4 (0.5 mM, pH 7.2), and the absorbance at 520 nm of the reaction mixtures was read every 2 min for 30 min at 30° C., using Victor V^2 Multi-Label Counter. […]

[3] = test system: isolated heart; experiment: Myocardial I-R injury (LDH leakage) in young adult and middle-aged rats; conditions: 10 mg/kg/day x 35
Description: as §1, with “analysis. To investigate the effect of (−) Sch B on myocardial ischemia-reperfusion […] injury, rats were intragastrically administered with (−) Sch B at a daily dose of 10 mg/kg for 35 days. Untreated control animals received olive oil only. Twenty-four hours after the last dosing, hearts were isolated from pentobarbital-anesthetized animals and subjected to I-R experiment.” for “analysis.”

In the case of `COc1cc2c(c(OC)c1OC)-c1c(cc3c(c1OC)OCO3)CC(C)C(C)C2` (single isomer, unassigned; (-)) [(−) Sch B, (−) Schisandrin B], the “Heat Shock Protein Level, Hsp70” value ([1]; BRAIN) is reported as 0.49 ± 0.05 AU, the “Hsp70 level, percent increase vs untreated control” value (“Hsp70 level, percent increase” below) ([1]; BRAIN) is reported as “(77%)” and the “Heat Shock Protein Level, Hsp70” value ([1]; HEART) is reported as 0.71 ± 0.03 AU. The “Hsp70 level, percent increase” value ([1]; HEART) was “(17%)”, the “Heat Shock Protein Level, Hsp70” value ([1]; LIVER) was 0.69 ± 0.001 AU and the “Hsp70 level, percent increase” value ([1]; LIVER) was “(45%)”. For the same compound, the “Heat Shock Protein Level, Hsp70” value ([1]; SKELETAL MUSCLE) was 0.69 ± 0.07 AU, the “Hsp70 level, percent increase” value ([1]; SKELETAL MUSCLE) was “(57%)” and the “extent of inhibition of sensitivity to Ca2+-induced MPT” value ([2]; middle-aged rats, all tissues except liver, range among tissues) was 15-29%. For the same compound, the “sensitivity to Ca2+-induced MPT in liver” value ([2]; middle-aged rats, liver) was “did not show detectable change”, the “decrease of sensitivity to Ca2+-induced MPT” value ([2]; young adult rat tissues, 10 mg/kg/day x 15, range among tissues) was 15-48% and the “degree of protection against myocardial I-R injury” value ([3]; middle-aged rats) was 36%. For the same compound, the “degree of protection against myocardial I-R injury” value ([3]; young adult rats) was 55%.
